Test results reported in BigSolDB 2.1.

COc1cc2nccc(Oc3ccc(NC(=O)C4(C(=O)Nc5ccc(F)cc5)CC4)cc3)c2cc1OC.O=C(O)C[C@H](O)C(=O)O
solubility (mole fraction)
Details	298.2 K	303.2 K	308.2 K	313.2 K	318.2 K
in DMSO	0.0332	0.0353	0.0376	0.0404	0.0435
in ethanol	0.000391	0.000507	0.000724	0.000977	0.00127
in ethyl acetate	8.8e-05	0.000135	0.000187	0.000277	0.000415
in ethylene glycol	0.000426	0.000605	0.000839	0.00109	0.00138
in isopropanol	0.000529	0.00068	0.000944	0.0013	0.00169
in methanol	0.000169	0.000262	0.000372	0.000503	0.000705
in n-butanol	0.000675	0.000932	0.00128	0.00166	0.00215
in propylene glycol	0.000715	0.00098	0.00131	0.00179	0.00238
in sec-butanol	0.000687	0.000943	0.00135	0.00173	0.00221
in transcutol	0.00179	0.00231	0.00315	0.0042	0.00545
in water	2.27e-07	3.4e-07	4.82e-07	6.52e-07	8.5e-07

Details	solubility (mole fraction)
in PEG-400, 298.2 K	0.00354
in PEG-400, 303.2 K	0.00538
in PEG-400, 308.2 K	0.00749
in PEG-400, 313.2 K	0.0105
in PEG-400, 318.2 K	0.0142
